{"source": "paper PMC8778984", "about": "(Pharmaceutics, 2021)", "key": {"U251 human glioma cells": {"tested_on": "U251 human glioma cells", "experiment": "Growth inhibition, MTT viability assay, U251 cells", "type": "cell-based", "details": "for antiproliferative potency compared with MTX (in words): MTX-insensitive glioma cell line U251, 48 h MTT; for antiproliferative potency, BSA–S–S–MTX compared with BSA–(CH2)6–MTX (in words): insensitive glioma cell line U251", "procedure": "(§1) In this study, we used two glioma cell lines: (i) CNS-1; rat glioma; (ii) U251; human glioma. Cells were a generous gift from Dr. Yael Mardor from the Sheba Medical Center, Israel.\n(§2) Cancer cell lines were grown in monoculture in 96-well plates in RPMI (CNS-1 cells) or DMEM containing 10% fetal bovine serum, 2 mM L-glutamine, penicillin (100 units/mL), and streptomycin (0.1 mg/mL) under humidified atmosphere containing 5% CO2. […] Cell viability was measured after 48 h using a standard MTT (3-(4,5-dimethylthiazol-2-yl)-2,5-diphenyltetrazolium bromide) assay, as described before."}, "[1]": {"design": "method as in printed", "details": "ref not given, cited from earlier work"}, "CNS-1 rat glioma cells": {"tested_on": "CNS-1 rat glioma cells", "experiment": "Growth inhibition, MTT viability assay, CNS-1 cells", "type": "cell-based", "details": "for inhibition compared with MTX (in words): CNS-1 (Figure 4B), at 10 µM, to a lesser extent at 1 µM; for antiproliferative potency compared with MTX (in words): MTX-sensitive cell line CNS-1, 48 h MTT; for antiproliferative potency, BSA–S–S–MTX compared with BSA–(CH2)6–MTX (in words): sensitive glioma cell line CNS-1", "procedure": "as §1, §2"}, "glioma cell lines": {"tested_on": "glioma cell lines", "details": "read-out: average EC50; variety of glioma cell lines, large variation among lines; cited from earlier work"}, "[2]": {"target": "T1, DHFR (dihydrofolate reductase), partially purified from chicken liver (Gallus gallus, UniProt P00378)", "T1 construct": "Fresh chicken liver (20 g) was cut into pieces, homogenized in 0.1 M MnCl2 and centrifuged; from tissue; host or cells: chicken liver", "T1 sequence (P00378 1-189)": "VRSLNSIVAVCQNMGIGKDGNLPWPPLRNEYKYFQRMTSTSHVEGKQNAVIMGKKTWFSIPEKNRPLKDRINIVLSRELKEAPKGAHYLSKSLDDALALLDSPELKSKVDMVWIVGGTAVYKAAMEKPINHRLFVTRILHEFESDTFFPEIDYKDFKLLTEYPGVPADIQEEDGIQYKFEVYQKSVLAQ", "experiment": "Cell-free enzymatic assay for DHFR (NADPH oxidation, absorbance at 340 nm)", "type": "biochemical", "details": "for % Inhibition relative to MTX: DHFR inhibitory potency relative to MTX", "procedure": "This was carried out by the procedure of Kaufman and Kemerer with some modifications: Fresh chicken liver (20 g) was cut into pieces, homogenized in 0.1 M MnCl2 and centrifuged. The supernatant was brought to pH 5–6 with HCl, and ZnSO4 was added gradually to obtain a final concentration of 20 mM. The pH was elevated to pH 7.5–8 by the addition of solid NaHCO3. […] The proteins that remained in the supernatant were precipitated with 4.54 M ammonium sulfate. The precipitate was then dissolved in 50 mM Tris-HCl (pH 7.5) containing 0.1 M KCl and dialyzed for two days against the same buffer, and then frozen in aliquots at −80 °C until used.\n(§3) The assay was based on DHFR-dependent reduction of dihydrofolate to tetrahydrofolate. In this process, NADPH is oxidized to NADP, and the extent of the oxidation is monitored by the decrease in absorbance at 340 nm. Tubes containing 1.0 mL each of 0.05 M Tris-HCl buffer (pH 7.5) 0.5 M KCl, 0.137 mM NADPH, and 0.187 mM DHF were incubated for 1 h at 25 °C in the absence and the presence of partially purified DHFR (35 µg/mL) and increasing concentrations of MTX or its derivatives. The absorbance at 340 nm was then monitored.\nFigure 1 Inhibition of dihydrofolate reductase by MTX and MTX analogues. The indicated concentrations of MTX and its derivatives were analyzed for their potencies to inhibit the reduction of dihydrofolate to tetrahydrofolate by DHFR. In this process, NADPH is oxidized to NADP and the extent of this oxidation is monitored by the decrease in absorbance at 340 nm (experimental section)."}, "[3]": {"target": "T2, DHFR (dihydrofolate reductase) (Gallus gallus, UniProt P00378)", "T2 construct": "Fresh chicken liver (20 g) was cut into pieces, homogenized in 0.1 M MnCl2 and centrifuged; from tissue; host or cells: chicken liver", "T2 sequence (P00378 1-189)": "T1 sequence (P00378 1-189)", "experiment": "Reactivation of BSA–MTX analogues by DTT, GSH or L-cysteine, read out as DHFR inhibitory potency", "type": "biochemical, chicken", "details": "for Fold Reactivation by DTT: 2 mM DTT (dithiothreitol); for reactivation by glutathione and L-cysteine (in words): GSH or L-cysteine at concentrations of 100 μM or lower; for % Activity Relative to MTX: Table 2, + 2 mM DTT", "procedure": "as §3\nA solution of BSA–GSSG–MTX (50 μM in 0.1 M HEPES buffer, pH 7.4, 130 mM NaCl) was divided into plastic tubes (1.0 mL/tube) and incubated for 2 h at 25 °C in the absence and the presence of 2 mM DTT and the indicated concentrations of either GSH or L-cysteine. Samples were then analyzed for their DHFR inhibitory potencies and the IC50 values were determined. Results are expressed as percent of maximal reactivation (obtained by preincubation with 2 mM DTT). Each point is the arithmetic mean of n = 4 tubes ± SEM."}, "[4]": {"experiment": "Maleimide–thiol exchange assay (incubation with GSH, dialysis, absorbance at 372 nm)", "type": "physicochemical", "procedure": "BSA–S–MAL–(CH2)3–CONH–MTX (0.2 mM) was dissolved in 1.0 mL 0.1 M HEPES, pH 7.3, and transferred to a tube containing 7.5 mg GSH corresponding to […] which are 100 molar excess over the conjugate. The solution was incubated for 7 h at 37 °C, followed by extensive dialysis and lyophilization. Absorbance was read at 372 nm."}, "cancer cell lines": {"tested_on": "cancer cell lines", "experiment": "Antiproliferative efficacy in the cancer cell lines (unpublished results)", "type": "cell-based"}, "[5]": {"details": "Table 2, without DTT, read-out: DHFR Inhibitory Potency (IC50)"}, "[6]": {"details": "Table 1, 1 h at 25 °C, 0.137 mM NADPH, 0.187 mM DHF, read-out: IC50"}}, "note": "“Also recorded” adds a separate entry of the source. Like-named read-outs stand apart in the source and are kept apart here.", "data": [{"compound": "CN(Cc1cnc2nc(N)nc(N)c2n1)c1ccc(C(=O)N[C@@H](CCC(=O)O)C(=O)O)cc1", "note": "[Methotrexate, reference compound]", "values": [{"measurement": "EC50", "setting": "U251 human glioma cells; Homo sapiens, U-251, U251, 48 h, MTT, read-out: EC50 (concentration needed to obtain 50% of viable cells relative to untreated cells)", "result": "~10000", "unit": "nM"}, {"measurement": "Emax", "setting": "U251 human glioma cells; Homo sapiens, U-251, U251, at ~10 µM, within 48 h, read-out: maximum effect", "result": 49, "unit": "%"}, {"measurement": "pKa", "setting": "[1]; α-carboxylate", "result": "~ 2.1"}, {"measurement": "pKa", "setting": "[1]; γ-carboxylate", "result": "~ 4.1"}, {"measurement": "viability in comparison to nontreated cells", "setting": "CNS-1 rat glioma cells; CNS-1, at maximal effect, 48 h", "result": 36, "unit": "%"}, {"measurement": "EC50", "setting": "CNS-1 rat glioma cells; Rattus norvegicus, Glioma cell, CNS-1, 48 h, MTT, read-out: EC50 (concentration needed to obtain 50% of viable cells relative to untreated cells)", "result": "~70", "unit": "nM"}, {"measurement": "Emax", "setting": "CNS-1 rat glioma cells; Rattus norvegicus, Glioma cell, CNS-1, within 48 h, read-out: maximal effect", "result": 64, "unit": "%"}, {"measurement": "EC50", "setting": "glioma cell lines", "result": 2400, "unit": "nM"}]}, {"compound": "BSA–S–MAL–(CH2)3–CONH–(CH2)2–S–S–(CH2)2–NH^γCO–MTX [BSA–S–S–MTX]", "values": [{"measurement": "% Activity Relative to MTX", "setting": "[2]; Table 2, without DTT", "result": 2.0, "unit": "%"}, {"measurement": "IC50", "setting": "[2]; [5]", "result": "2750 ± 200", "unit": "nM"}, {"measurement": "Fold Reactivation by DTT", "setting": "[3]", "result": 7.05, "unit": "fold"}, {"measurement": "reactivation by GSH (in words)", "setting": "[3]; GSH at a concentration of 1 mM or higher", "result": "reactivated"}, {"measurement": "reactivation by glutathione and L-cysteine (in words)", "setting": "[3]", "result": "do not reactivate"}, {"measurement": "% Activity Relative to MTX", "setting": "[3]", "result": 14.1, "unit": "%"}, {"measurement": "antiproliferative potency compared with MTX (in words)", "setting": "U251 human glioma cells", "result": "significantly more potent"}, {"measurement": "antiproliferative potency, BSA–S–S–MTX compared with BSA–(CH2)6–MTX (in words)", "setting": "U251 human glioma cells", "result": "slightly less potent than BSA–(CH2)6–MTX; also recorded: essentially equipotent"}, {"measurement": "inhibition compared with MTX (in words)", "setting": "CNS-1 rat glioma cells", "result": "significantly more inhibitory than MTX"}, {"measurement": "antiproliferative potency compared with MTX (in words)", "setting": "CNS-1 rat glioma cells", "result": "less potent than MTX"}, {"measurement": "antiproliferative potency, BSA–S–S–MTX compared with BSA–(CH2)6–MTX (in words)", "setting": "CNS-1 rat glioma cells", "result": "slightly less potent than BSA–(CH2)6–MTX; also recorded: essentially equipotent"}]}, {"compound": "CN(Cc1cnc2nc(N)nc(N)c2n1)c1ccc(C(=O)NC(CCC(=O)NCCS)C(=O)O)cc1", "note": "(centres unmarked) [MTX–cystamine, MTX–CONH–(CH2)2–SH]", "values": [{"measurement": "IC50", "setting": "[2]; [6]", "result": "340 ± 11", "unit": "nM"}, {"measurement": "% Inhibition relative to MTX", "setting": "[2]; Table 1", "result": 16.2, "unit": "%"}]}, {"compound": "BSA–S–MAL–(CH2)3–CONH–(CH2)6–NH^γCO–MTX [BSA–(CH2)6–MTX]", "values": [{"measurement": "maleimide–thiol exchange (in words)", "setting": "[4]; 100-fold molar excess of GSH, 7 h, pH 7.3, 37 °C, listed as BSA–S–MAL–(CH2)3–CONH–MTX", "result": "did not undergo significant maleimide–thiol exchange; also recorded: such exchange does not occur"}, {"measurement": "Absorbance at 372 nm per mg Protein", "setting": "[4]; Control (no GSH)", "result": "0.479 ± 0.03"}, {"measurement": "Absorbance at 372 nm per mg Protein", "setting": "[4]; GSH, 100 molar excess, 7 h, 37 °C, pH 7.3, then dialysis", "result": "0.487 ± 0.03"}, {"measurement": "cleavage of the spacer peptide bond (in words)", "setting": "[4]; neutral pH", "result": "not cleaved"}, {"measurement": "% Activity Relative to MTX", "setting": "[2]; Table 2, without DTT", "result": 7.0, "unit": "%"}, {"measurement": "IC50", "setting": "[2]; [5]", "result": "790 ± 30", "unit": "nM"}, {"measurement": "antiproliferative potency compared with MTX (in words)", "setting": "U251 human glioma cells", "result": "significantly more potent"}, {"measurement": "antiproliferative potency, BSA–S–S–MTX compared with BSA–(CH2)6–MTX (in words)", "setting": "U251 human glioma cells", "result": "essentially equipotent"}, {"measurement": "inhibition compared with MTX (in words)", "setting": "CNS-1 rat glioma cells", "result": "significantly more inhibitory than MTX"}, {"measurement": "antiproliferative potency compared with MTX (in words)", "setting": "CNS-1 rat glioma cells", "result": "less potent than MTX"}, {"measurement": "antiproliferative potency, BSA–S–S–MTX compared with BSA–(CH2)6–MTX (in words)", "setting": "CNS-1 rat glioma cells", "result": "essentially equipotent"}]}, {"compound": "CN(Cc1cnc2nc(N)nc(N)c2n1)c1ccc(C(=O)NC(CCC(=O)NCCSSCCN)C(=O)O)cc1", "note": "(centres unmarked) [MTX–dicystamine, MTX–CONH–(CH2)2–S–S–(CH2)2–NH2]", "values": [{"measurement": "IC50", "setting": "[2]; [6]", "result": "110 ± 12", "unit": "nM"}, {"measurement": "% Inhibition relative to MTX", "setting": "[2]; Table 1", "result": 50, "unit": "%"}]}, {"compound": "CN(Cc1cnc2nc(N)nc(N)c2n1)c1ccc(C(=O)N[C@@H](CCC(=O)NCCCCCCN)C(=O)O)cc1", "note": "[MTX–hexylamine, MTX–CONH–(CH2)6–NH2]", "values": [{"measurement": "IC50", "setting": "[2]; [6]", "result": "80 ± 4", "unit": "nM"}, {"measurement": "% Inhibition relative to MTX", "setting": "[2]; Table 1", "result": 69, "unit": "%"}, {"measurement": "% of the DHFR inhibitory potency of MTX", "setting": "[2]; running text and scheme legend", "result": 69, "unit": "%"}]}, {"compound": "BSA–S–MAL–(CH2)3–CO–NH–GSSG–NH^γCO–MTX [BSA–GSSG–MTX]", "values": [{"measurement": "% Activity Relative to MTX", "setting": "[2]; Table 2, without DTT", "result": 3.14, "unit": "%"}, {"measurement": "IC50", "setting": "[2]; [5]", "result": "1750 ± 120", "unit": "nM"}, {"measurement": "Fold Reactivation by DTT", "setting": "[3]", "result": 5.16, "unit": "fold"}, {"measurement": "reactivation by glutathione and L-cysteine (in words)", "setting": "[3]", "result": "do not reactivate"}, {"measurement": "% Activity Relative to MTX", "setting": "[3]", "result": 16.2, "unit": "%"}, {"measurement": "reactivation of DHFR inhibitory potency by GSH and cysteine (in words)", "setting": "[3]; cell-free state", "result": "highly effective in reactivating"}, {"measurement": "antiproliferative efficacy (in words)", "setting": "cancer cell lines", "result": "low antiproliferative efficacy"}]}]}
